The term IC50 denotes the concentration at which inhibition is half-maximal.

Numbered stars: 1 amine (or outer) side, 2 acyl side, 3 side chain; on linkers, the order of the positions; unused ones are H or OH. Bridge positions count the residues as written; N and C are the ends. Square brackets hold non-standard residues; d marks the D form. Peptide text beside a SMILES is read from it. Trp(βS-Me,7-OMe) = COc1cccc2c([C@H](C)[C@H](N)C(=O)O)c[nH]c12; Trp(7-Cl) = N[C@@H](Cc1c[nH]c2c(Cl)cccc12)C(=O)O; Phe(4-CONH2) = NC(=O)c1ccc(C[C@H](N)C(=O)O)cc1; Phe(4-COOH) = N[C@@H](Cc1ccc(C(=O)O)cc1)C(=O)O; Trp(7-aza) = N[C@@H](Cc1c[nH]c2ncccc12)C(=O)O; Trp(1-Me) = Cn1cc(C[C@H](N)C(=O)O)c2ccccc21; Pip(5R-OH) = O=C(O)[C@@H]1CC[C@@H](O)CN1; αMeW = C[C@](N)(Cc1c[nH]c2ccccc12)C(=O)O; X1 = O=C([C@@H]1CC[C@H](N[*:1])C1)[*:2]; X19 = O=C([C@H](Cc1ccncn1)N[*:1])[*:2]; X6 = O=C([C@@H](N[*:1])C1(O)CC1)[*:2]; Gly(N(CH2)3COOH) = O=C(O)CCCNCC(=O)O; Pip(4-aza) = O=C(O)[C@@H]1CNCCN1; 4Pal = N[C@@H](Cc1ccncc1)C(=O)O; NMeE = CN[C@@H](CCC(=O)O)C(=O)O; dHyp = O=C(O)[C@H]1C[C@H](O)CN1; aThr = C[C@H](O)[C@H](N)C(=O)O; Pip = O=C(O)[C@@H]1CCCCN1; αMeS = C[C@](N)(CO)C(=O)O; Nle = CCCC[C@H](N)C(=O)O; Sar = CNCC(=O)O

The test deals with T1, TNFα-induced NF-κB signal transduction pathway (TNFR1 signaling) in THP-1 cells (Homo sapiens, UniProt P19438).
T1 sequence (P19438 30-455): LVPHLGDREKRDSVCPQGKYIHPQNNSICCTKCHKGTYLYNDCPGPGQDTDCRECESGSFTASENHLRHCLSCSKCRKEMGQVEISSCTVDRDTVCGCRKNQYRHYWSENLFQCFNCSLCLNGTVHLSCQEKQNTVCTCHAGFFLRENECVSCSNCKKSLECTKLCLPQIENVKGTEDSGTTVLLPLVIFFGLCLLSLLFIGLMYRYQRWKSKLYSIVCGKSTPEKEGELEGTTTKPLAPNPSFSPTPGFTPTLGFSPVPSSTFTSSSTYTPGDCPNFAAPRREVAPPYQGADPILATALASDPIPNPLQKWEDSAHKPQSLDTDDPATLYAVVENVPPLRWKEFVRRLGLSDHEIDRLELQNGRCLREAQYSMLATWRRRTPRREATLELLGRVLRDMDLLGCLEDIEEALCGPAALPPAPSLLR
Nature of the test: THP-1 Lucia NF-κB reporter cell assay, inhibition of TNFα-induced NF-κB signaling. Format: cell-based. The note with it: THP-1 NF-κB Lucia reporter cells, 10 ng/mL TNFα, 16-18 h, secreted luciferase; read-out: THP-1 IC50. In outline: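 THP-1 Lucia NF-κB cells, 20k/well, no selection antibiotics; peptide pre-inc 1 h 37 °C; + recombinant human TNFα 10 ng/mL final; o.n.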
For `CCCC[C@@H]1NC(=O)[C@@H]2CC[C@@H](C2)NC(=O)[C@H]([C@@H](C)c2c[nH]c3c(OC)cccc23)NC(=O)CN(C)C(=O)[C@H](Cc2ccc(C(=O)O)cc2)NC(=O)[C@H](Cc2ccc(C(N)=O)cc2)NC(=O)[C@](C)(CO)NC(=O)[C@H](Cc2c[nH]c3c(Cl)cccc23)NC(=O)[C@H](Cc2ccncn2)NC(=O)[C@H](CC(N)=O)NC(=O)[C@H]2C[C@H](O)CN2C(=O)[C@H](Cc2c[nH]c3ncccc23)NC(=O)[C@@H]2CC[C@@H](O)CN2C(=O)[C@H](Cc2ccncc2)NC1=O` [SEQ ID NO. 159] (cyclo([4Pal][Pip(5R-OH)][Trp(7-aza)][dHyp]N[X19][Trp(7-Cl)][αMeS][Phe(4-CONH2)][Phe(4-COOH)][Sar][Trp(βS-Me,7-OMe)][X1][Nle])), the IC50 worked out at 0.8 nM.

Take `CCCC[C@@H]1NC(=O)[C@@H]2CC[C@@H](C2)NC(=O)[C@H]([C@@H](C)c2c[nH]c3c(OC)cccc23)NC(=O)CN(C)C(=O)[C@H](Cc2ccc(C(=O)O)cc2)NC(=O)[C@H](Cc2ccc(C(N)=O)cc2)NC(=O)[C@](C)(CO)NC(=O)[C@H](Cc2c[nH]c3c(Cl)cccc23)NC(=O)[C@H](Cc2ccncc2)NC(=O)[C@H]([C@H](C)O)NC(=O)[C@H]2C[C@H](O)CN2C(=O)[C@H](Cc2c[nH]c3ccccc23)NC(=O)[C@@H]2CC[C@@H](O)CN2C(=O)[C@H](Cc2ccncc2)NC1=O` [SEQ ID NO. 187] (cyclo([4Pal][Trp(7-Cl)][αMeS][Phe(4-CONH2)][Phe(4-COOH)][Sar][Trp(βS-Me,7-OMe)][X1][Nle][4Pal][Pip(5R-OH)]W[dHyp][aThr])): the IC50 stood at 0.5 nM.

With `CCCC[C@@H]1NC(=O)CSC[C@@H](C(N)=O)NC(=O)[C@H]([C@@H](C)c2c[nH]c3c(OC)cccc23)NC(=O)CN(C)C(=O)[C@H](Cc2ccc(O)cc2)NC(=O)[C@H](Cc2ccc(C(=O)O)cc2)NC(=O)[C@](C)(CO)NC(=O)[C@H](Cc2c[nH]c3c(Cl)cccc23)NC(=O)[C@H](Cc2ccncc2)NC(=O)[C@H](CC(N)=O)NC(=O)CN(CCCC(=O)O)C(=O)[C@H](Cc2c[nH]c3ncccc23)NC(=O)[C@@H]2CCCCN2C(=O)[C@H](Cc2ccncc2)NC1=O` [SEQ ID NO. 157] ({CH2CO}-[Nle][4Pal][Pip][Trp(7-aza)][Gly(N(CH2)3COOH)]N[4Pal][Trp(7-Cl)][αMeS][Phe(4-COOH)]Y[Sar][Trp(βS-Me,7-OMe)]C-NH2; thioether N-14), the IC50 was 4 nM.

Turning to `CCCC[C@@H]1NC(=O)CSC[C@@H](C(N)=O)NC(=O)[C@](C)(Cc2c[nH]c3ccccc23)NC(=O)CN(C)C(=O)[C@H](Cc2ccc(O)cc2)NC(=O)[C@H](Cc2ccc(C(=O)O)cc2)NC(=O)[C@](C)(CO)NC(=O)[C@H](Cc2c[nH]c3c(Cl)cccc23)NC(=O)[C@H](Cc2ccncc2)NC(=O)[C@H](CC(N)=O)NC(=O)[C@H](CCC(=O)O)N(C)C(=O)[C@H](Cc2c[nH]c3ncccc23)NC(=O)[C@H](C2(O)CC2)NC(=O)[C@H](Cc2ccncc2)NC1=O` [SEQ ID NO. 281] ({CH2CO}-[Nle][4Pal][X6][Trp(7-aza)][NMeE]N[4Pal][Trp(7-Cl)][αMeS][Phe(4-COOH)]Y[Sar][αMeW]C-NH2; thioether N-14), the IC50 came to 8.4 nM.

With `CCCC[C@@H]1NC(=O)[C@@H]2CC[C@@H](C2)NC(=O)[C@H]([C@@H](C)c2c[nH]c3c(OC)cccc23)NC(=O)CN(C)C(=O)[C@H](Cc2ccc(OC)cc2)NC(=O)[C@H](Cc2ccc(C(=O)O)cc2)NC(=O)[C@](C)(CO)NC(=O)[C@H](Cc2c[nH]c3c(Cl)cccc23)NC(=O)[C@H](Cc2ccc(C(N)=O)cc2)NC(=O)[C@H](CCC(N)=O)NC(=O)[C@H](CCC(=O)O)N(C)C(=O)[C@H](Cc2c[nH]c3ccccc23)NC(=O)[C@@H]2CNCCN2C(=O)[C@H](Cc2ccncc2)NC1=O` [SEQ ID NO. 240] (cyclo([4Pal][Pip(4-aza)]W[NMeE]Q[Phe(4-CONH2)][Trp(7-Cl)][αMeS][Phe(4-COOH)]Y(Me)[Sar][Trp(βS-Me,7-OMe)][X1][Nle])), the IC50 was 1 nM.

With `CCCC[C@@H]1NC(=O)CSC[C@@H](C(N)=O)NC(=O)[C@H](Cc2cn(C)c3ccccc23)NC(=O)CN(C)C(=O)[C@H](Cc2ccc(O)cc2)NC(=O)[C@H](Cc2ccc(C(=O)O)cc2)NC(=O)[C@](C)(CO)NC(=O)[C@H](Cc2c[nH]c3c(Cl)cccc23)NC(=O)[C@H](Cc2ccncc2)NC(=O)[C@H](CC(N)=O)NC(=O)[C@H](CCC(=O)O)N(C)C(=O)[C@H](Cc2c[nH]c3ncccc23)NC(=O)[C@H](CO)NC(=O)[C@H](Cc2ccncc2)NC1=O` [SEQ ID NO. 223] ({CH2CO}-[Nle][4Pal]S[Trp(7-aza)][NMeE]N[4Pal][Trp(7-Cl)][αMeS][Phe(4-COOH)]Y[Sar][Trp(1-Me)]C-NH2; thioether N-14), the IC50 came out at 2.9 nM.

The values are drawn from US20240287138A1, “CYCLIC PEPTIDES FOR INHIBITING TNF RECEPTOR 1 ACTIVITY” (Merck Sharp & Dohme LLC, priority 2023, published 2024).
